Data: patent US20250235509A1, “Formulation and Method of Preparing Glucagon-like Peptide-1 (GLP-1) for Oral Administration” (priority 2024, published 2025)
Values joined by “and” are separate entries in the source; they are usually repeats but may differ in a detail not shown here. Identical values can stand only once. Like-named read-outs stand apart in the source and are kept apart here.

How the values were obtained:
[1] = mouse, in vivo
Experimental: (§1) A mouse at two weeks old was gavaged with Liraglutide, or not treated with Liraglutide to serve as a control mouse. Two hours later, the pancreas of the mouse was collected and homogenized, and a protein extract was centrifuged. Thereafter the ELISA essay was conducted.
(§2) Experimental mice, at two weeks old, were gavaged with Semaglutide GLP-1 at 0.16 mg/mouse, and control mice received no orally administered Semaglutide GLP-1. Two hours later, the pancreas and brain were collected and homogenized, and protein extracts were subjected to an ELISA assay.

[2] = mouse, in vivo, po
Experimental: (§3) A quantitative ELISA assay to determine the absorption rate was also performed. The experimental mouse was sacrificed and whole body fluid collected one hour after feeding with Liraglutide. The intensity of the color was compared with that of a standard curve constructed by standard Liraglutide.
(§4) A quantitative ELISA assay was performed to determine the absorption rate, and the mice were sacrificed and whole body fluid collected one hour after feeding with Semaglutide GLP-1. […] The intensity of the color was compared with that of a standard curve constructed by standard Semaglutide GLP-1.

[3] = in vivo
Experimental: (§5) The concentrations of each reagent are as follows: • Liraglutide: 1.5 mM • EDTA: 5 to 10 mM • Zinc acetate: 15-100 mM Referring to FIGS. 1-7, an enzyme-linked immunosorbent assay (ELISA) was performed on the sera of mice orally administered with Liraglutide following the PSIM process.
(§6) In this assay, a mouse (at two weeks old) was gavaged with Liraglutide in contrasts to a control mouse to which no Liraglutide was administered. After two hours, serum was collected, and an ELISA assay performed.
(§7) Two hours later, serum was collected, and an ELISA assay was performed.

[4] = orally administered in combination with absorption enhancer such as Salcaprozate sodium (SNAC); cited from earlier work
[5] = Body weight change in mice given oral GLP-1 analog; format: in vivo, mouse; settings: for % Body Weight Change / Body Weight (Day 1) / Body Weight (Day 7): individual Exp. mice
Experimental: A quantity of orally administered Semaglutide GLP-1 was prepared as discussed in FIG. 8, and orally given to mice (Exp.) for seven days, along with control mice (Control) to which no Semaglutide GLP-1 was orally administered. Body weight was measured at the beginning and on the seventh day. The results are reflected in the following table:
In one experiment, orally administered Tirzepatide GLP-1 caused weight loss in mice. A quantity of orally administered Tirzepatide GLP-1 was prepared as discussed above, and orally given to mice (Exp.) for five days, along with control mice (Control) to which no Tirzepatide GLP-1 was orally administered. Body weight was measured at the beginning and on the fifth day.

[6] = test system: blood glucose; test: Glucose tolerance in human subject (blood glucose AUC); format: in vivo
Experimental: A human subject was orally given 10 mg Semaglutide GLP-1 prepared as described in FIG. 8 at −2 minutes. A control human subject was not administered any Semaglutide GLP-1 At time zero, 15 g glucose was orally given. Blood glucose levels were monitored every fifteen minutes thereafter for ninety minutes. The area-under-curve (AUC), which represents the quantity of glucose in the blood was then determined.

[7] = ELISA assay of pancreas and brain extracts of orally dosed mice; settings: two hours after gavage at 0.16 mg/mouse, mice two weeks old
Experimental: as §1, §2

[8] = Quantitative ELISA assay of whole body fluid to determine the absorption rate; settings: oral; whole body fluid collected one hour after feeding; color intensity vs standard curve
Experimental: as §3, §4

[9] = test system: blood glucose; test: Blood glucose in mice after oral glucose solution; format: in vivo, mouse; settings: fasted four hours, 50 mg oral glucose
Experimental: The orally administered Liraglutide was prepared by incubating Liraglutide at 1.7 mM in 9.6 mM EDTA for two hours, followed by incubation of the mixture with 15 mM zinc acetate for twelve hours to produce a Liraglutide for oral administration. The experimental mice were orally given 0.5 mg Liraglutide, and the control mice were administered a vehicle solution for 5 days. Thereafter, experimental and control mice were fasted for four hours followed by an orally given 50 mg glucose solution. Three and a half hours later, blood glucose was determined. The control mice were given a non-Liraglutide vehicle (N=3).
The orally administered Semaglutide GLP-1 was prepared by incubating Semaglutide GLP-1 at 1.7 mM in 9.6 mM EDTA for two hours, followed by incubation of the mixture with 15 mM zinc acetate for twelve hours to produce a Semaglutide GLP-1 for oral administration. Experimental mice were orally given 0.5 mg Liraglutide, and control mice were given a vehicle solution for 5 days. Thereafter, experimental and control mice were fasted for four hours, followed by an orally given 50 mg glucose solution. Three and a half hours later blood glucose was determined. The control mice were given a non-Liraglutide vehicle (N=3).
Orally administered Tirzepatide GLP-1 was also shown to lower blood glucose levels in mice. The orally administered Tirzepatide GLP-1 was prepared in the manner discussed above. Thereafter 0.15 mg of orally administered Tirzepatide GLP-1 was fed to mice for five days. The mice were fasted for four hours, then 50 mg of a glucose solution was orally given. Three hours later, blood glucose levels were determined. In three control mice, who received no orally administered Tirzepatide GLP-1, the glucose levels in mg/dl were 93, 95, and 88, respectively. In three experimental mice that received orally administered Tirzepatide GLP-1, the glucose levels were 50, 52, and 47, respectively. […]

[10] = ELISA assay of sera/plasma of mice orally administered with PSIM-processed GLP-1 analog; settings: serum collected two hours after gavage, mouse two weeks old, vs control mouse
Experimental: as §5, §6, §7

CCCCCCCCCCCCCCCC(=O)N[C@@H](CCC(=O)NCCCC[C@H](NC(=O)[C@H](C)NC(=O)[C@H](C)NC(=O)[C@H](CCC(N)=O)NC(=O)CNC(=O)[C@H](CCC(=O)O)NC(=O)[C@H](CC(C)C)NC(=O)[C@H](Cc1ccc(O)cc1)NC(=O)[C@H](CO)NC(=O)[C@H](CO)NC(=O)[C@@H](NC(=O)[C@H](CC(=O)O)NC(=O)[C@H](CO)NC(=O)[C@@H](NC(=O)[C@H](Cc1ccccc1)NC(=O)[C@@H](NC(=O)CNC(=O)[C@H](CCC(=O)O)NC(=O)[C@H](C)NC(=O)[C@@H](N)Cc1cnc[nH]1)[C@@H](C)O)[C@@H](C)O)C(C)C)C(=O)N[C@@H](CCC(=O)O)C(=O)N[C@@H](Cc1ccccc1)C(=O)N[C@H](C(=O)N[C@@H](C)C(=O)N[C@@H](Cc1c[nH]c2ccccc12)C(=O)N[C@@H](CC(C)C)C(=O)N[C@H](C(=O)N[C@@H](CCCNC(=N)N)C(=O)NCC(=O)N[C@@H](CCCNC(=N)N)C(=O)NCC(=O)O)C(C)C)[C@@H](C)CC)C(=O)O [Liraglutide]
time at which substance appeared in the pancreas after gavage [1]: ninety
absorption rate [2]: seventy two
presence of GLP-1 in orally dosed mouse vs control, all instances FIGS. 1-4 ([3]; po): increased presence of GLP-1
presence in serum by ELISA (blue color) ([3]; mouse): existence of Liraglutide in the serum

Semaglutide
bioavailability [4]: about 0.8%

Semaglutide [Semaglutide GLP-1]
% Body Weight Change ([5]; Day 1 to Day 7 of oral dosing): −7% and +8%
Body Weight (Day 1) ([5]; beginning of seven days oral dosing): 28 g (2×) and 24 g
Body Weight (Day 7) ([5]; seventh day of oral dosing): 26 g (2×) and 28 g
body weight outcome relative to control mice ([5]; oral dosing for seven days): reduced weight gain or weight loss relative to the control mice
blood glucose area-under-curve (AUC) ([6]; 10 mg orally at -2 minutes, 15 g oral glucose at time zero, monitored ninety minutes): 232
AUC reduction vs control subject ([6]; 10 mg orally, 15 g oral glucose, ninety minutes): twenty six
presence in brain extract by ELISA (blue color) [7]: presence of orally administered Semaglutide GLP-1 in the pancreas and brain
presence in pancreas extract by ELISA (blue color) [7]: presence of orally administered Semaglutide GLP-1 in the pancreas and brain
absorption rate [8]: approximately seventy
blood glucose (average) ([9]; 0.5 mg orally for 5 days, measured three and a half hours later, N=3): 45.00
average difference in blood glucose, control mice vs treated mice ([9]; 0.5 mg orally for 5 days, three and a half hours later): approximately 50%
presence in serum by ELISA (blue color) [10]: existed in the experimental mouse serum

Tirzepatide [Tirzepatide GLP-1]
Body Weight (Day 1) ([5]; beginning of five days oral dosing): 26 g and 24 g and 28 g
% Body Weight Change ([5]; oral dosing for five days): −18% and −4.1% and −7.1%
Body Weight (Day 7) ([5]; oral dosing for five days, text says measured on the fifth day): 22 g and 23 g and 26 g
body weight outcome relative to control mice ([5]; oral dosing for five days): reduced weight gain or weight loss relative to the control mice
glucose levels ([9]; individual mice, 0.15 mg orally for five days, three hours later): 50 mg/dL and 52 mg/dL and 47 mg/dL
